Assays:
[1] = Protective index, ratio of TD50 for neurotoxicity in ip dosed Kunming mouse to ED50 for anticonvulsant activity in ip dosed Kunming mouse; format: toxicity, organism-based; conditions: in vivo, read-out: PI
Mus musculus [2] = assay: Anticonvulsant activity in ip dosed Kunming mouse assessed as protection against maximal electroshock-induced seizures […]; format: functional
Mus musculus [3] = assay: Anticonvulsant activity in ip dosed Swiss mouse assessed as protection against PTZ-induced seizures administered 30 mins prior to PTZ challenge; format: functional
Mus musculus [4] = assay: Anticonvulsant activity in po dosed CD1 mouse assessed as protection against strychnine-induced seizures administered 0.5 hr prior to strychnine challenge; format: functional
Mus musculus [5] = assay: Anticonvulsant activity in ip dosed NMRI mouse assessed as protection against PTZ-induced seizures administered 30 mins prior to PTZ injection measured after 30 mins; format: functional
[6] = Neurotoxicity in ip dosed C57BL/6 mouse after 30 mins by rotarod test; format: toxicity, organism-based, C57B/6; conditions: in vivo
[7] = Protective index, ratio of TD50 for neurotoxicity in ip dosed C57BL/6 mouse to ED50 for anticonvulsant activity in ip dosed C57BL/6 mouse; format: toxicity, organism-based, C57B/6; conditions: in vivo
Mus musculus [8] = assay: Anticonvulsant activity in ip dosed C57BL/6 mouse assessed as protection against maximal electroshock-induced seizures measured at 30 mins interval over 4 hrs by MES test; format: functional; conditions: C57B/6, ip
[9] = Protective index, ratio of TD50 for neurotoxicity in ip dosed Swiss mouse by rotarod test to ED50 for anticonvulsant activity in ip dosed Swiss mouse by MES test; format: toxicity, organism-based; conditions: in vivo, read-out: Ratio TD50/ED50
Mus musculus [10] = assay: Anticonvulsant activity in ip dosed Swiss mouse assessed as protection against maximal electroshock-induced seizures administered 30 mins prior to electrical stimulation by MES test; format: functional
Mus musculus [11] = assay: Anticonvulsant activity in ip dosed C57BL/6 mouse assessed as protection against maximal electroshock-induced seizures measured at 5 secs intervals over 4 hrs by MES test; format: functional; conditions: C57B/6, ip
Mus musculus [12] = assay: Anticonvulsant activity in ip dosed Kunming mouse assessed as protection against maximal electroshock-induced seizures after 30 mins by MES test; format: functional; conditions: 0.5 h
[13] = Protective index, ratio of TD50 for neurotoxicity in ip dosed Swiss mouse to ED50 for anticonvulsant activity in ip dosed Swiss mouse; format: toxicity, organism-based; conditions: in vivo, read-out: Ratio TD50/ED50
Mus musculus [14] = assay: Anticonvulsant activity in ip dosed Swiss mouse assessed as protection against strychnine-induced tonic extensor after 30 mins; format: functional; conditions: 0.5 h
Mus musculus [15] = assay: Anticonvulsant activity in BALB/c mouse assessed as protection against maximal electroshock-induced seizures at 30 mg/kg, po after 1 hr by MES test; format: functional
Mus musculus [16] = assay: Anticonvulsant activity in albino Swiss mouse assessed as protection against PTZ-induced seizures at 100 mg/kg, ip administered 2 hrs prior to PTZ injection measured after 60 mins; format: functional
[17] = Neurotoxicity in ip dosed Kunming mouse after 15 mins by rotarod test; format: toxicity, organism-based; conditions: in vivo
Mus musculus [18] = assay: Anticonvulsant activity in mouse assessed as protection against maximal electroshock-induced seizures at 50 and 100 mg/kg by MES test; format: functional
Mus musculus [19] = assay: Anticonvulsant activity in NMRI mouse assessed as protection against PTZ-induced seizures at 100 mg/kg, ip administered 30 mins prior to PTZ injection measured for 30 mins; format: functional
Mus musculus [20] = assay: Anticonvulsant activity in NMRI mouse assessed as protection against maximal electroshock-induced seizures at 100 mg/kg, ip by MES test; format: functional
Mus musculus [21] = assay: Anticonvulsant activity in lithium-pilocarpine NMRI mouse model assessed as inhibition of pilocarpine-induced seizures at 10 mg/kg, ip administered 30 mins prior to pilocarpine injection measured for 60 mins; format: functional

With `Clc1ccc(-c2nn3cnnc3s2)cc1` the selectivity ratio [1] was 10.8 and the ED50 (Mus musculus [2]) was 23.7 mg/kg.
Molecule `Cn1c(-c2ccccc2)nnc1S(C)(=O)=O` has an ED50 (Mus musculus [3]) of 55 mg/kg and an ED50 (Mus musculus [4]) of 7.3 mg/kg.
`Nc1nnc(-c2ccc(Cl)cc2Oc2ccccc2F)[nH]1` showed an ED50 (Mus musculus [5]) of 1.4 mg/kg.
Molecule `CCCCCCCOc1ccc2c(c1)CCc1nn(C(=O)CC)c(=O)n1-2` has a TD50 at 0.5 h [6] of 318 mg/kg, a selectivity ratio ([7]; read-out: Ratio TD50/ED50) of 39 and an ED50 (Mus musculus [8]) of 8.2 mg/kg.
For `CCCCCCCOc1nn2cnnc2c2ccccc12`, the selectivity ratio [9] was 8 and the ED50 (Mus musculus [10]) was 11 mg/kg.
Molecule `Fc1cccc(C2Cc3nncn3-c3ccccc32)c1` (stereo unspecified) has an ED50 (Mus musculus [11]) of 22 mg/kg, a selectivity ratio ([7]; read-out: PI) of 3.33 and an ED50 (Mus musculus [8]) of 27.4 mg/kg.
`CCCCCCOc1ccc2c(c1)c(-c1ccccc1)cc1nncn12` showed a selectivity ratio ([7]; read-out: PI) of 35.1 and an ED50 (Mus musculus [8]) of 6.5 mg/kg.
For `CCCCCCCOc1nncn1-c1ccc(OCCCCCC)cc1`, the selectivity ratio [1] was 11.3 and the ED50 (Mus musculus [12]) was 37.3 mg/kg.
`Clc1ccc(C2=Nn3cnnc3SC2)cc1` showed a selectivity ratio [1] of 6.5 and an ED50 (Mus musculus [2]) of 40.9 mg/kg.
In the case of `Fc1ccc(-n2c(-c3cccc(Cl)c3)n[nH]c2=S)cc1`, the selectivity ratio [13] is reported as 3.9.
With `Cc1nn2c(C(N)=O)nnc2cc1Cc1c(Cl)cccc1Cl` the ED50 (Mus musculus [3]) was 91.1 mg/kg, the ED50 (Mus musculus [14]) was 62.9 mg/kg and the ED50 (Mus musculus [10]) was 12.5 mg/kg.
`Cn1c(SCc2ccccc2)nnc1-c1ccc(N)cc1` gave an Activity (Mus musculus [15]) of 50%.
`CC1=NNC(=O)/C1=N\Nc1ccc(-c2n[nH]c(=O)n2-c2ccccc2)cc1` gave an Activity (Mus musculus [16]) of 30%.
`Fc1ccccc1COc1ccc2c(c1)SCc1nncn1-2` gave an ED50 (Mus musculus [12]) of 17 mg/kg and a TD50 at 0.25 h [17] of 244 mg/kg.
Work on `Nc1nnc(-c2ccc(Cl)cc2Oc2ccccc2Cl)[nH]1` yielded an ED50 (Mus musculus [5]) of 12 mg/kg.
For `CCn1c(S)nnc1-c1sc(-c2ccccc2)nc1C`, the Activity (Mus musculus [18]) was 80%.
Work on `Clc1ccc(Oc2nn3cnnc3c3ccccc23)cc1` yielded a selectivity ratio [9] of 5.2 and an ED50 (Mus musculus [10]) of 7.1 mg/kg.
`CC1=NNC(=O)/C1=N\Nc1ccc(-c2n[nH]c(=S)n2-c2ccccc2)cc1` gave an Activity (Mus musculus [16]) of 30%.
`Clc1ccc(-c2nc(Cn3cncn3)cs2)cc1` gave an Activity (Mus musculus [19]) of 100% and an Activity (Mus musculus [20]) of 100%.
Work on `O=C1c2ccccc2OCC1n1cncn1` (stereo unspecified) yielded an inhibition in vivo at 10 mg/kg (Mus musculus [21]) of 49%.
Work on `CCCCCCCOc1cc(-c2ccccc2)nc2ncnn12` yielded an ED50 (Mus musculus [2]) of 84.9 mg/kg.
